Assay results from patent publication US20070011757A1, “Transgenic rodents as animal models for modulation of B1 bradykinin receptor protein” (priority 2001, published 2007).

What was measured:
endogenous B1 receptor = target: T1, endogenous B1 receptor (Rattus norvegicus, UniProt P97583); experiment: Autoradiography of [3H]DALK binding in brain and spinal cord sections of non-transgenic rats; details: non-transgenic control rats, 0.3 nM radioligand
T1 construct: DALK in non-transgenic control rats; from tissue; host or cells: brain and spinal cord sections (and whole-brain homogenate) of non-transgenic Sprague-Dawley rats
T1 sequence (P97583 1-337): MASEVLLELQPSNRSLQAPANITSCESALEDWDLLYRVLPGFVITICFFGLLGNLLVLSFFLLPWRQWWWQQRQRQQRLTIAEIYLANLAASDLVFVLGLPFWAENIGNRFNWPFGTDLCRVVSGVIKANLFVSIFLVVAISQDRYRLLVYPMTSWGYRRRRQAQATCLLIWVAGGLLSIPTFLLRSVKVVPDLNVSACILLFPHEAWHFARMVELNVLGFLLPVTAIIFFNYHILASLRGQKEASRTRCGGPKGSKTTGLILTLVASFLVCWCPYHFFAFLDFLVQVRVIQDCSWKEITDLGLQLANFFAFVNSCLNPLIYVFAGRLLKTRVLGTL

[1] = target: T2, human B1 bradykinin receptor (Homo sapiens, UniProt P46663); experiment: 3H-DALK binding to membranes from transgenic rat brain tissue
T2 construct: from tissue; host or cells: whole-brain membranes of transgenic Sprague-Dawley rats carrying Construct #1
T2 sequence (P46663 1-353): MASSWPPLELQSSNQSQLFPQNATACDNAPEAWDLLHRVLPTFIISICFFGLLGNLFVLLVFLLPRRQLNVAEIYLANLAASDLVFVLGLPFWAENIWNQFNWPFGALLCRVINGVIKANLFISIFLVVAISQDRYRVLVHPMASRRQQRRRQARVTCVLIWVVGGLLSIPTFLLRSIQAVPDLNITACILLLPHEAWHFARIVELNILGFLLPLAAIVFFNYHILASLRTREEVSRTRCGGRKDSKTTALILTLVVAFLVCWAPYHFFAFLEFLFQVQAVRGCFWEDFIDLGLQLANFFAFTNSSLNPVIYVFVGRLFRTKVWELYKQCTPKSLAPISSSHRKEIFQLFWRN
Procedure: Also important in these assays is the low expression level of endogenous B1 receptor in neuronal tissue. Briefly, transgenic animals from line 0004, 0014, and 0015 (all females) were decapitated following anesthesia and the whole brain was removed, bisected sagitally and the entire 1⁄2 brain weighed. Weights were as follows: line 0004 (813 mg), line 0014 (851 mg), and 0015 (843 mg). The brain tissue was homogenized with a Polytron in ice cold 50 mM Tris-HCl, 1 mM EDTA, 1 mM o-phenanthroline, pH 7.4. The homogenate was centrifuged at 50,000×g for 20 minutes. The pellet was resuspended and homogenized a second time in Tris buffer, and the centrifugation step was repeated. The final pellet was resuspended in assay buffer (20 mM HEPES, 120 mM NaCl, 5 mM KCl, 1 mM o-phenanthroline, 0.2 uM of […] form and active metabolite of […] added to inhibit angiotensin converting enzyme), 100 μg/ml bacitracin, 3 μM amastatin, 1 μM phosphoramidon, 0.1% BSA, pH 7.4. The assay was carried out in a 0.5 ml volume at room temperature for sixty minutes with 10 mg wet weight tissue/tube. Total protein was determined using a Bio Rad DC assay kit. […] FIG. 9A, 9B and 9C show measurements of the amount of total, nonspecific and specific binding of ^3H-DALK to transgenic rat brain tissue which expresses human B1 bradykinin receptor. […] In contrast, no B1 receptor is detected in the brains of non-transgenic rats. The Ki values determined for three standard lead compounds in Line 0004 are very similar to those obtained at the cloned hB1 receptor expressed in CHO cells. Therefore, expression of the human B1 bradykinin receptor in Line 0004 has the properties expected for the human B1 receptor.

Substance: [des-Arg^10, Leu^9]-Kallidin [^3H-DALK]
- specific binding (endogenous B1 receptor): did not show any specific binding signal
- specific binding (endogenous B1 receptor; listed as [H-3] DALK): no detectable specific binding
- affinity for the human B1 receptor relative to the rat B1 receptor [1]: greater affinity
- selectivity ([1]; printed as 'approximately 40 fold selective for this ligand'): approximately 40 fold
- expression (specific binding of 3H-DALK, saturation binding) ([1]; transgenic rat Line 0004 brain membranes, FIG. 9A): 40 fmol/mg protein
- expression (specific binding of 3H-DALK, saturation binding) ([1]; transgenic rat Line 0014 brain membranes, FIG. 9B): 4 fmol/mg protein
- expression (specific binding of 3H-DALK, saturation binding) ([1]; transgenic rat Line 0015 brain membranes, FIG. 9C): 7 fmol/mg protein
- binding site in transgenic rats expressing the human B1 receptor ([1]; whole brain homogenate assay or receptor autoradiography of brain slices): readily detectable
